Data reported in US8846670B2, “1,2,3,4-tetrahydro-pyrimido(1,2-a)pyrimidin-6-one derivatives, preparation thereof, and pharmaceutical use thereof” (priority 2009, dated 2014).
pIC50: −log10 of the molar value.

What was measured:
[1] = test system: AKT protein phosphorylated on serine 473 (P-AKT-S473) in PC3 human prostate carcinoma line; assay: Study of pAKT expression in PC3 human prostate carcinoma cells measured by the MSD Multi-spot Biomarker Detection technique (Test B); assay type: cell-based; conditions: MSD sandwich immunoassay, 1 to 2 h incubation, absolute IC50, mean of 2 experiments
Protocol: The inhibitory activity of the molecules on AKT phosphorylation is measured either by western blotting using the technique described below, or by the MSD Multi-spot Biomarker detection technique from Meso Scale Discovery also described below.
Study of pAKT Expression in PC3Human Prostate Carcinoma Cells Measured by the MSD Multi-Spot Biomarker Detection Technique from Meso Scale Discovery (Test B):
The primary antibody specific for P-AKT-S473 (Kit #K151CAD) is coated onto an electrode in each well of the 96-well plates of the MSD kit: after the addition of a protein lysate to each well, the signal is visualised by adding a secondary detection antibody labelled with an electrochemiluminescent compound. The procedure followed is that described in the kit.
On day 2, the cells are incubated in the presence or absence of the test products for 1 to 2 h at 37° C. in the presence of 5% of CO2. The molecules, diluted in dimethyl sulphoxide (DMSO Sigma #D2650), are added from a 20-times concentrated stock solution, the final percentage of DMSO being 0.1%.
After this incubation, the cells are lysed for the preparation of the proteins. […] At this stage, the plates containing the lysates can be frozen at −20° C. or at −80° C.
The wells of the 96-well plates of the MSD kit are saturated for 1 h at ambient temperature with the blocking solution of the MSD kit. Four washes are carried out with 150 μl of Tris Wash Buffer of the MSD kit. The lysates previously prepared are transferred into the 96-well multi-spot plates of the MSD kit and incubated for 1 h at ambient temperature, with shaking. Four washes are carried out with 150 μl of Tris Wash Buffer of the MSD kit. 25 μl of the MSD sulfo-tag detection antibody solution are added to the wells and incubated for 1 h at ambient temperature, with shaking. Four washes are carried out with 150 μl of Tris Wash Buffer of the MSD kit. 150 μl of Read Buffer of the MSD kit are added to the wells and the plates are read immediately on the S12400 instrument from Meso Scale Discovery.
The instrument measures a signal for each well. Wells without cells and containing the lysis buffer serve to determine the background noise that will be subtracted from all the measurements (min). The wells containing cells in the absence of product and in the presence of 0.1% DMSO are considered to be the 100% signal (max). The percentage inhibition is calculated for each concentration of test product according to the following formula: (1−((test−min)/(max−min)))×100.
2 independent experiments make it possible to calculate the mean of the IC50 values.

[2] = test system: translocation of the LC3 protein in Hela GFP-LC3 cells; assay: Study of the translocation of the LC3 protein in Hela human cells, measured by image analysis cytometry (Test C, autophagy); assay type: cell-based; conditions: 2 h, Hela GFP-LC3 cells with LC3 granulations, EBSS + 10 μM hydroxychloroquine, absolute IC50
Protocol: The inhibitory activity of the molecules on autophagy is measured by the translocation of the LC3 protein from the cytoplasm to the autophagosomes. For this, Hela cells were transfected with a vector encoding the chimeric protein GFP-LC3. A Hela clone stably expressing the GFP-LC3 protein was selected.
Study of the Translocation of the LC3 Protein in Hela Human Cells, Measured by Image Analysis Cytometry (Test C):
On day 2, the cells are washed twice with EBSS (Sigma #E3024). The cells are then incubated in EBSS, 10 μM of hydroxychloroquine and test products for 2 h at 37° C. in the presence of 5% CO2. The molecules are diluted in dimethyl sulphoxide (DMSO Sigma #D2650), the final DMSO percentage being 0.1%.
After this incubation, the cells are fixed with 4% paraformaldehyde (Sigma #HT501128 4 L) for 10 min. […] The 96-well plates are then read with the iCyte image analysis cytometer (Compucyte).
Two independent experiments make it possible to calculate the mean of the IC50 values.

[3] = Homo sapiens, PC-3, P-AKT-S473 in PC3 cells

SMILES	pIC50 [1, 3]	pIC50 ([2]; Homo sapiens, HeLa)	pIC50 ([1]; P-AKT-S473 in PC3 cells)	pIC50 [2]
CC(c1ccc(F)cc1)N1c2nc(N3CCOCC3)cc(=O)n2CC[C@H]1C(F)(F)F (single isomer, unassigned) [Example 33, (8S)-9-[(1R or 1S)-1-(4-fluorophenyl)ethyl]-2-(morpholin-4-yl)-8-(trifluoromethyl)-6,7,8,9-tetrahydro-4H-pyrimido[1,2-a]pyrimidin-4-one]	7.62	6.66		
O=c1cc(N2CCOCC2)nc2n1CC[C@@H](C(F)(F)F)N2c1cccnc1 [Example 19, (S)-2-morpholin-4-yl-9-pyridin-3-yl-8-trifluoromethyl-6,7,8,9-tetrahydropyrimido[1,2-a]pyrimidin-4-one]	7.41	< 6.00		
Cc1ccc(N2c3nc(N4CCOCC4)cc(=O)n3CC[C@H]2C(F)(F)F)cc1 [Example 21, (8S)-9-(4-methylphenyl)-2-(morpholin-4-yl)-8-(trifluoro-methyl)-6,7,8,9-tetrahydro-4H-pyrimido[1,2-a]pyrimidin-4-one]	7.62	6.80		
O=c1cc(N2CCOCC2)nc2n1CC[C@@H](C(F)(F)F)N2Cc1cc(F)cc(F)c1 [Example 29, (8S)-9-(3,5-difluorobenzyl)-2-(morpholin-4-yl)-8-(trifluoro-methyl)-6,7,8,9-tetrahydro-4H-pyrimido[1,2-a]pyrimidin-4-one]	7.66	< 6.00		
O=c1cc(N2CCOCC2)nc2n1CC[C@@H](C(F)(F)F)N2CCc1cccc(Cl)c1 [Example 46, (8S)-9-[2-(3-chlorophenyl)ethyl]-2-(morpholin-4-yl)-8-(trifluoromethyl)-6,7,8,9-tetrahydro-4 H-pyrimido[1,2-a]pyrimidin-4-one]	8.40	7.80		
O=c1cc(N2CCOCC2)nc2n1CC[C@@H](C(F)(F)F)N2Cc1ccc(F)c(F)c1F [Example 31, (8S)-2-(morpholin-4-yl)-9-(2,3,4-trifluorobenzyl)-8-(trifluoro-methyl)-6,7,8,9-tetrahydro-4H-pyrimido[1,2-a]pyrimidin-4-one]	6.82	6.25		
O=c1cc(N2CCOCC2)nc2n1CC[C@@H](C(F)(F)F)N2Cc1ccc(F)cc1F [Example 30, (8S)-9-(2,4-difluorobenzyl)-2-(morpholin-4-yl)-8-(trifluoro-methyl)-6,7,8,9-tetrahydro-4H-pyrimido[1,2-a]pyrimidin-4-one]	7.37	6.67		
COc1cccc(CN2c3nc(N4CCOCC4)cc(=O)n3CC[C@H]2C(F)(F)F)c1 [Example 26, (8S)-9-(3-methoxybenzyl)-2-(morpholin-4-yl)-8-(trifluoromethyl)-6,7,8,9-tetrahydro-4H-pyrimido[1,2-a]pyrimidin-4-one]	7.74	6.57		
O=c1c(F)c(N2CCOCC2)nc2n1CC[C@@H](C(F)(F)F)N2Cc1ccccc1 [Example 41, (8S)-9-benzyl-3-fluoro-2-(morpholin-4-yl)-8-(trifluoro-methyl)-6,7,8,9-tetrahydro-4 H-pyrimido[1,2-a]pyrimidin-4-one]	8.40	6.72		
Cc1cccc(N2c3nc(N4CCOCC4)cc(=O)n3CC[C@H]2C(F)(F)F)c1 [Example 35, (8S)-9-(3-methylphenyl)-2-(morpholin-4-yl)-8-(trifluoro-methyl)-6,7,8,9-tetrahydro-4H-pyrimido[1,2-a]pyrimidin-4-one]	7.70	6.19		
O=c1cc(N2CCOCC2)nc2n1CC[C@@H](C(F)(F)F)N2c1ccc(Cl)cc1 [Example 36, (8S)-9-(4-chlorophenyl)-2-(morpholin-4-yl)-8-(trifluoro-methyl)-6,7,8,9-tetrahydro-4H-pyrimido[1,2-a]pyrimidin-4-one]	7.74	6.80		
O=c1cc(N2CCOCC2)nc2n1CC[C@@H](C(F)(F)F)N2c1ccc(C(F)(F)F)cc1 [Example 37, (8S)-2-(morpholin-4-yl)-8-(trifluoromethyl)-9-[4-(trifluoro-methyl)phenyl]-6,7,8,9-tetrahydro-4H-pyrimido[1,2-a]pyrimidin-4-one]	7.74	6.57		
O=c1cc(N2CCOCC2)nc2n1CC[C@@H](C(F)(F)F)N2Cc1csc2ccc(Cl)cc12 [Example 32, (8S)-9-[(5-chloro-1-benzothiophen-3-yl)methyl]-2-(morpholin-4-yl)-8-(trifluoromethyl)-6,7,8,9-tetrahydro-4H-pyrimido[1,2-a]pyrimidin-4-one]	7.48	6.11		

Further lines, results first:

pIC50 [1, 3]	pIC50 ([2]; Homo sapiens, HeLa)	pIC50 ([1]; P-AKT-S473 in PC3 cells)	pIC50 [2]	SMILES
7.80	6.01			O=C(c1c(F)cccc1F)N1c2nc(N3CCOCC3)cc(=O)n2CC[C@H]1C(F)(F)F [Example 43, (8S)-9-[(2,6-difluorophenyl)carbonyl]-2-(morpholin-4-yl)-8-(trifluoromethyl)-6,7,8,9-tetrahydro-4 H-pyrimido[1,2-a]pyrimidin-4-one]
7.64	6.11			O=c1cc(N2CCOCC2)nc2n1CC[C@@H](C(F)(F)F)N2Cc1ccccc1Cl [Example 22, (8S)-9-(2-chlorobenzyl)-2-(morpholin-4-yl)-8-(trifluoro-methyl)-6,7,8,9-tetrahydro-4H-pyrimido[1,2-a]pyrimidin-4-one]
		8.30	6.63	CC(c1ccccc1F)N1c2nc(N3CCOCC3)cc(=O)n2CC[C@H]1C(F)(F)F (single isomer, unassigned) [Example 39, (8S)-9-[(1R or 1S)-1-(2-fluorophenyl)ethyl]-2-(morpholin-4-yl)-8-(trifluoromethyl)-6,7,8,9-tetrahydro-4 H-pyrimido[1,2-a]pyrimidin-4-one]
7.62	6.18			O=c1cc(N2CCOCC2)nc2n1CC[C@@H](C(F)(F)F)N2Cc1cccc(F)c1 [Example 23, (8S)-9-(3-fluorobenzyl)-2-(morpholin-4-yl)-8-(trifluoromethyl)-6,7,8,9-tetrahydro-4H-pyrimido[1,2-a]pyrimidin-4-one]
6.97	< 6.00			O=C(c1ccc(F)cc1F)N1c2nc(N3CCOCC3)cc(=O)n2CC[C@H]1C(F)(F)F [Example 44, (8S)-9-[(2,4-difluorophenyl)carbonyl]-2-(morpholin-4-yl)-8-(trifluoromethyl)-6,7,8,9-tetrahydro-4 H-pyrimido[1,2-a]pyrimidin-4-one]
7.48	< 5.00			O=C(c1ccccc1F)N1c2nc(N3CCOCC3)cc(=O)n2CC[C@H]1C(F)(F)F [Example 28, (8S)-9-[(2-fluorophenyl)carbonyl]-2-(morpholin-4-yl)-8-(trifluoromethyl)-6,7,8,9-tetrahydro-4H-pyrimido[1,2-a]pyrimidin-4-one]
7.85	< 6.00			O=C(Cc1ccccc1)N1c2nc(N3CCOCC3)cc(=O)n2CC[C@H]1C(F)(F)F [Example 45, (8S)-2-(morpholin-4-yl)-9-(phenylacetyl)-8-(trifluoromethyl)-6,7,8,9-tetrahydro-4 H-pyrimido[1,2-a]pyrimidin-4-one]
	6.78	8.70		CC(c1ccccc1F)N1c2nc(N3CCOCC3)cc(=O)n2CC[C@H]1C(F)(F)F (single isomer, unassigned) [Example 38, (8S)-9-[(1R or 1S)-1-(2-fluorophenyl)ethyl]-2-(morpholin-4-yl)-8-(trifluoromethyl)-6,7,8,9-tetrahydro-4 H-pyrimido[1,2-a]pyrimidin-4-one]
